US12503452B2 (Curza Global, LLC, priority 2019, dated 2025)

Legend:
[1] = test system: E. coli S30 extract (bacterial protein synthesis); assay: E. coli S30 extract coupled transcription-translation luciferase assay (inhibition of bacterial protein synthesis); format: biochemical; conditions: class by IC50 or % inhibition @ 1 μM, read-out: S30 IC50 (μM/% inhib.)
Procedure, shortened: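 Cell-free coupled transcription-translation in E. coli S30 circular-DNA extract, with pBESTluc plasmid as template and complete amino acid mix. Eight 2-fold compound dilutions were incubated with the extract 1 h at 37 °C, chilled, then luciferase luminescence was read. % inhibition was taken relative to no-inhibitor wells; no-DNA wells gave background.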

[2] = test system: E. faecalis (Ef); assay: Broth microdilution minimum inhibitory concentration (MIC); format: cell-based; conditions: Enterococcus faecalis, E. faecalis; growth medium supplemented with sodium bicarbonate; read-out: Ef + bicarb MIC
Procedure, shortened: (§1)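 Following CLSI M07-A9 with minor changes, growth medium was cation-adjusted Mueller-Hinton broth, alone or supplemented with bicarbonate (6.25 or 25 mM) or heat-inactivated human serum up to 50%. Each compound was tested over eight two-fold dilutions against 5×10^4 CFU per well.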

[3] = test system: S. aureus (Sa); assay: as above; format: cell-based; conditions: Staphylococcus aureus, S. aureus; growth medium supplemented with sodium bicarbonate; read-out: Sa + bicarb MIC
Procedure, shortened: as §1

[4] = test system: E. coli (Ec); assay: as above; format: cell-based; conditions: Escherichia coli, E. coli; growth medium supplemented with sodium bicarbonate; read-out: E. coli + bicarb MIC
Procedure, shortened: as §1

[5] = test system: A. baumannii (Ab); assay: as above; format: cell-based; conditions: Acinetobacter baumannii; A. baumannii; growth medium supplemented with sodium bicarbonate; read-out: Ab + bicarb MIC
Procedure, shortened: as §1

[6] = test system: P. aeruginosa (Pa); assay: as above; format: cell-based; conditions: Pseudomonas aeruginosa, P. aeruginosa; growth medium supplemented with sodium bicarbonate; read-out: Pa MIC + bicarb
Procedure, shortened: as §1

[7] = biological target: Rabbit Reticulocyte Lysate (eukaryotic protein synthesis); assay: Rabbit reticulocyte lysate luciferase assay (inhibition of eukaryotic protein synthesis); format: biochemical; conditions: class by IC50 or % inhibition @ 1 μM, read-out: Rabbit reticulocyte IC50 (μM/% inhib.)
Procedure, shortened: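 Nuclease-treated rabbit reticulocyte lysate translating luciferase control RNA, with complete amino acids, was incubated at 30° C. for 90 minutes with 2-fold serial compound dilutions. Luminescence was measured after adding luciferase reagent. % inhibition was relative to water controls, with no-RNA wells as background.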

| Compound | IC50 [1] | MIC [2] | MIC [3] | MIC [4] | MIC [5] | MIC [6] | IC50 [7] |
| --- | --- | --- | --- | --- | --- | --- | --- |
| Cc1cc(-n2ccc(NC(=O)N3CCN(C(=O)C(C)(C)N)CC3)nc2=O)ccc1CCN1CCCC(N)CC1 (stereo not shown) [Compound 140] | < 0.5 µM | < 8 µg/mL | < 8 µg/mL | < 8 µg/mL | 8 to 32 µg/mL | 8 to 32 µg/mL | > 1 µM |
| CC(C)(N)C(=O)N1CCN(C(=O)Nc2ccn(-c3ccc(CCN4CCCC(N)CC4)c(F)c3)c(=O)n2)CC1 (stereo not shown) [Compound 141] | < 0.5 µM | < 8 µg/mL | < 8 µg/mL | < 8 µg/mL | > 32 µg/mL | 8 to 32 µg/mL | > 1 µM |
| CC(C)(N)C(=O)N1CCN(C(=O)Nc2ccn(-c3ccc(CCN4CCCC(N)CC4)c(C(F)(F)F)c3)c(=O)n2)CC1 (stereo not shown) [Compound 142] | < 0.5 µM | < 8 µg/mL | < 8 µg/mL | < 8 µg/mL | 8 to 32 µg/mL | 8 to 32 µg/mL | > 1 µM |
| CC(C)(N)C(=O)N1CCN(C(=O)Nc2ccn(-c3ccc(C[C@@H](N)C(=O)N4CCCC(N)CC4)cc3)c(=O)n2)CC1 (stereo partly shown) [Compound 143] | > 1 µM | > 32 µg/mL | > 32 µg/mL | > 32 µg/mL | > 32 µg/mL | > 32 µg/mL | > 1 µM |
| CC(C)(N)C(=O)N1CCN(C(=O)Nc2ccn(-c3ccc(C(N)C(=O)N4CC(N)C4)cc3)c(=O)n2)CC1 (stereo not shown) [Compound 144] | > 1 µM | > 32 µg/mL | > 32 µg/mL | > 32 µg/mL | > 32 µg/mL | > 32 µg/mL | > 1 µM |
| CC(C)(N)C(=O)N1CCN(C(=O)Nc2ccn(-c3ccc(C(N)C(=O)NC4CNC4)cc3)c(=O)n2)CC1 (stereo not shown) [Compound 145] | 0.5 to 1 µM | > 32 µg/mL | > 32 µg/mL | > 32 µg/mL | > 32 µg/mL | > 32 µg/mL | > 1 µM |
| CC(C)(N)C(=O)N1CCN(C(=O)Nc2ccn(-c3ccc(C[C@H](N)C(=O)N4CC(N)C4)cc3)c(=O)n2)CC1 [Compound 146] | > 1 µM | > 32 µg/mL | > 32 µg/mL | > 32 µg/mL | > 32 µg/mL | > 32 µg/mL | > 1 µM |
| CC(C)(N)C(=O)N1CCN(C(=O)Nc2ccn(-c3ccc(C[C@H](N)C(=O)NC4CNC4)cc3)c(=O)n2)CC1 [Compound 147] | > 1 µM | > 32 µg/mL | > 32 µg/mL | > 32 µg/mL | > 32 µg/mL | > 32 µg/mL | > 1 µM |
| CC(C)(N)C(=O)N1CCN(C(=O)Nc2ccn(-c3ccc(C[C@H](N)C(=O)N4CCCC(N)CC4)cc3)c(=O)n2)CC1 (stereo partly shown) [Compound 148] | < 0.5 µM | > 32 µg/mL | > 32 µg/mL | > 32 µg/mL | > 32 µg/mL | > 32 µg/mL | > 1 µM |
| CC(Cc1ccc(-n2ccc(NC(=O)N3CCN(C(=O)C(C)(C)N)CC3)nc2=O)cc1)N(C)[C@H]1CC[C@@H](N)C1 (stereo partly shown) [Compound 149] | < 0.5 µM | 8 to 32 µg/mL | < 8 µg/mL | < 8 µg/mL | > 32 µg/mL | > 32 µg/mL | > 1 µM |
| CC(Cc1ccc(-n2ccc(NC(=O)N3CCN(C(=O)C(C)(C)N)CC3)nc2=O)cc1)N[C@H]1CC[C@@H](N)C1 (stereo partly shown) [Compound 150] | 0.5 to 1 µM | > 32 µg/mL | < 8 µg/mL | < 8 µg/mL | > 32 µg/mL | > 32 µg/mL | > 1 µM |
| CCN(C(C)Cc1ccc(-n2ccc(NC(=O)N3CCN(C(=O)C(C)(C)N)CC3)nc2=O)cc1)[C@H]1CC[C@@H](N)C1 (stereo partly shown) [Compound 151] | < 0.5 µM | < 8 µg/mL | < 8 µg/mL | < 8 µg/mL | > 32 µg/mL | 8 to 32 µg/mL | > 1 µM |
| CC(Cc1ccc(-n2ccc(NC(=O)N3CCN(C(=O)C(C)(C)N)CC3)nc2=O)cc1)NC1CCC(CN)CC1 (stereo not shown) [Compound 152] | > 1 µM | > 32 µg/mL | < 8 µg/mL | < 8 µg/mL | > 32 µg/mL | > 32 µg/mL | > 1 µM |
